Laboratory results from article PMC3071879 (Journal of the American Chemical Society, 2011).

How the values were obtained:
Type in all cases: biochemical
PacW = target: T1, PacW (Streptomyces coeruleorubidus, UniProt F5BFC7); assay: ATP-[…]PPi exchange; settings: adenylation, DL mixture used
T1 sequence (F5BFC7 1-507): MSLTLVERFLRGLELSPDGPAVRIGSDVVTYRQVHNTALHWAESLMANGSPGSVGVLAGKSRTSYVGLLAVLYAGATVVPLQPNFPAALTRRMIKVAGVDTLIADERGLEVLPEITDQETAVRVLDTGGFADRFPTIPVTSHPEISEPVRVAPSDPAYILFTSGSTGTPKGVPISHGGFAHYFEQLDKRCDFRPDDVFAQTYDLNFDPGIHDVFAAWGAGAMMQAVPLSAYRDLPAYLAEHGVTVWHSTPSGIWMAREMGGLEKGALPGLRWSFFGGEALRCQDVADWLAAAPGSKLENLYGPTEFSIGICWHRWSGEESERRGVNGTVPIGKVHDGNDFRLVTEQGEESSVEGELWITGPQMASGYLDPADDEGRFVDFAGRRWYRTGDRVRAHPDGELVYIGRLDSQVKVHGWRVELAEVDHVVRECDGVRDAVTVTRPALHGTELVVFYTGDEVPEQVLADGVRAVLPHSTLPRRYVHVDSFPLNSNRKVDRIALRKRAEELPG

PacP = target: T2, PacP (Streptomyces coeruleorubidus, UniProt E2EKP8); assay: ATP-[…]PPi exchange; settings: adenylation
T2 sequence (E2EKP8 1-848): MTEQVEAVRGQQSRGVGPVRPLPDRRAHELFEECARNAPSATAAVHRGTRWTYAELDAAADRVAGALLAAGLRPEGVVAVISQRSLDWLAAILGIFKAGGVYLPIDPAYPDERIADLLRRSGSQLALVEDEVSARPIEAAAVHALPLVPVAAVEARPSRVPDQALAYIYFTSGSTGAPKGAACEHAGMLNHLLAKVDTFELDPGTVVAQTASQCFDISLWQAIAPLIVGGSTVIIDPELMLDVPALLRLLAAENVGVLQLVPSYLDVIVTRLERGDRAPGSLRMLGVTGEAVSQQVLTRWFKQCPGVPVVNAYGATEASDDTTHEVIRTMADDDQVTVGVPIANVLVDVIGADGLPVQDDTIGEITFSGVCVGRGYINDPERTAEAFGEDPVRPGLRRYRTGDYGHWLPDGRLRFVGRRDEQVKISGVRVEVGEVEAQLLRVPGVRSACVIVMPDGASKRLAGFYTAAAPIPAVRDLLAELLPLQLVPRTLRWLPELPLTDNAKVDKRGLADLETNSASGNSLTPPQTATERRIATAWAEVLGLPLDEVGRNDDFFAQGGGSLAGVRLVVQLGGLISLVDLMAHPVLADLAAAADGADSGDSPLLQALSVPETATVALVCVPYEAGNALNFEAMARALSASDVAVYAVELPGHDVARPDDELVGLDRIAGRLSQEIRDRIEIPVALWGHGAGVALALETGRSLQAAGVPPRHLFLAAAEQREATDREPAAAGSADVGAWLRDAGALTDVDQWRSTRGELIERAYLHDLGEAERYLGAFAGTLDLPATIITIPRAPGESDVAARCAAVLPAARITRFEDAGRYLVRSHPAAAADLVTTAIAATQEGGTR

PacU = target: T3, PacU (Streptomyces coeruleorubidus, UniProt E2EKQ3); assay: ATP-[…]PPi exchange; settings: adenylation
T3 sequence (E2EKQ3 1-507): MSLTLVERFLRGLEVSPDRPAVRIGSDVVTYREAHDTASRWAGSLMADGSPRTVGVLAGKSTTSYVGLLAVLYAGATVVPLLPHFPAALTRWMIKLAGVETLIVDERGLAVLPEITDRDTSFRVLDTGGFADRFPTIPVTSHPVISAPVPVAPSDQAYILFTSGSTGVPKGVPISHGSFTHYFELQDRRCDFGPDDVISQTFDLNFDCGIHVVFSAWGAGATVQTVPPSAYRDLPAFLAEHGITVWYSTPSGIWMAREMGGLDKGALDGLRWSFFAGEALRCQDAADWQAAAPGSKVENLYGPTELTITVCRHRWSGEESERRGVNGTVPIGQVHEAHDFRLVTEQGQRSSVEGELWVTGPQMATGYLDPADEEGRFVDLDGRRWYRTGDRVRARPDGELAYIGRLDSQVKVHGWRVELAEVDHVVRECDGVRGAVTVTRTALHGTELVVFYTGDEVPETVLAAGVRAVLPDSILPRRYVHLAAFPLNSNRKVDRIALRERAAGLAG

PacV = PacV (Streptomyces coeruleorubidus, UniProt E2EKQ4); assay: SDS-PAGE autoradiography of […]-methyl transfer; settings: methyl acceptor DABA tethered to holo-PacP; labelled compound
Chain of PacV (E2EKQ4 1-250): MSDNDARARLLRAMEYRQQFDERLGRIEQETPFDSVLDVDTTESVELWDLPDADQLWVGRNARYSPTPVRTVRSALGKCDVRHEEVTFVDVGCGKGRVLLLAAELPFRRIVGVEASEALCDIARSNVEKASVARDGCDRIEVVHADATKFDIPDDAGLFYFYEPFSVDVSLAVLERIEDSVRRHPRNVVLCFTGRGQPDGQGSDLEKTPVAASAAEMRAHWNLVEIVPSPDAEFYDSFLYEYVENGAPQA

With `NC(Cc1cccc(O)c1)C(=O)O` (racemic) [m-Tyr] the “ATP-[32P]PPi exchange” value (PacW) was “demonstrated a strong preference for the activation of m-Tyr over other aromatic amino acids”.
`C[C@H](N)[C@H](N)C(=O)O` [2S,3S-DABA] was tested, and the “ATP-[32P]PPi exchange” value (PacP) was “PacP exhibited a preference toward reversible formation of 2S,3S-DABA-AMP”.
`C[C@H](N)C(=O)O` [L-Ala] was tested, and the “ATP-[32P]PPi exchange” value (PacU) was “exhibited a strong preference toward reversible formation of L-Ala-AMP”.
With `C[S+](CC[C@H](N)C(=O)O)C[C@H]1O[C@@H](n2cnc3c(N)ncnc32)[C@H](O)[C@@H]1O` (stereo partly shown) [S-adenosylmethionine] the “SDS-PAGE autoradiography of 14C-methyl transfer” value (PacV) was “PacV indeed transferred the methyl group from S-adenosylmethionine (SAM) to holo-PacP”.
